Experimental data reported in PubChem BioAssay AID1963434 (Molecular Pharmacology Branch, DTP, NCI, 2024).

Test system: 755483-174-R-J1-PDC complex spheroid growth, percent test/control
Assay: Anticancer human tumor 755483-174-R-J1-PDC patient-derived rhabdomyosarcoma cell line growth inhibition [Asc]
Conditions: for IC50: curve of first compound; for viability, T/C: stronger effect = lower value
Outline: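 Tumor cells were grown as multicellular spheroids with stromal HUVEC and mesenchymal stem cells and treated singly or in combination. Concentrations fell in half-log steps from the clinical Cmax, or from 10 microM where none was known.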

[1] = second compound 0.1 µM, first compound 0.0316 µM
[2] = second compound 0.1 µM, first compound 0.1 µM
[3] = second compound 0.1 µM, first compound 0.316 µM
[4] = second compound 0.1 µM, first compound 1 µM
[5] = second compound 0.316 µM, first compound 0.0316 µM
[6] = second compound 0.316 µM, first compound 0.1 µM
[7] = second compound 0.316 µM, first compound 0.316 µM
[8] = second compound 0.316 µM, first compound 1 µM
[9] = second compound 1 µM, first compound 0.0316 µM
[10] = second compound 1 µM, first compound 0.1 µM
[11] = second compound 1 µM, first compound 0.316 µM
[12] = second compound 1 µM, first compound 1 µM
[13] = second compound 3.16 µM, first compound 0.0316 µM
[14] = second compound 3.16 µM, first compound 0.1 µM
[15] = second compound 3.16 µM, first compound 0.316 µM
[16] = second compound 3.16 µM, first compound 1 µM
[17] = second compound 10 µM, first compound 0.0316 µM
[18] = second compound 10 µM, first compound 0.1 µM
[19] = second compound 10 µM, first compound 0.316 µM
[20] = second compound 10 µM, first compound 1 µM
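Note: spheroids exposed to compounds for seven days before readout.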

Structure (SMILES): C#Cc1c(F)ccc2cc(O)cc(-c3ncc4c(N5CC6CCC(C5)N6)nc(OCC56CCCN5CC(F)C6)nc4c3F)c12 (stereo not given) + Cc1c(S(C)(=O)=O)c(-c2cc(F)cc(N3CCN(c4ccc(NS(=O)(=O)c5ccc(NC(CCN6CCC(C(=O)OCCCP(=O)(O)O)CC6)CSc6ccccc6)c(S(=O)(=O)C(F)(F)F)c5)cc4)CC3)c2)c(-c2ccc(Cl)cc2)n1C(C)C
- IC50 (second compound 0.1 µM): 1200 nM
- IC50 (second compound 0.316 µM): 1280 nM
- IC50 (second compound 1 µM): < 31.6 nM
- IC50 (second compound 3.16 µM): < 31.6 nM
- IC50 (second compound 10 µM): < 31.6 nM
- viability, T/C [1]: 60.1%
- viability, T/C [2]: 65.8%
- viability, T/C [3]: 67.2%
- viability, T/C [4]: 47.9%
- viability, T/C (second compound 0.1 µM, first compound 3.16 µM): 36.6%
- viability, T/C (second compound 0.1 µM, first compound 10 µM): 12.6%
- viability, T/C [5]: 49%
- viability, T/C [6]: 63.5%
- viability, T/C [7]: 47.6%
- viability, T/C [8]: 55.4%
- viability, T/C (second compound 0.316 µM, first compound 3.16 µM): 35.8%
- viability, T/C (second compound 0.316 µM, first compound 10 µM): 10.3%
- viability, T/C [9]: 44.9%
- viability, T/C [10]: 49.5%
- viability, T/C [11]: 39.1%
- viability, T/C [12]: 39.1%
- viability, T/C (second compound 1 µM, first compound 3.16 µM): 27.3%
- viability, T/C (second compound 1 µM, first compound 10 µM): 5.81%
- viability, T/C [13]: 42.3%
- viability, T/C [14]: 36.8%
- viability, T/C [15]: 41.5%
- viability, T/C [16]: 33.6%
- viability, T/C (second compound 3.16 µM, first compound 3.16 µM): 23.8%
- viability, T/C (second compound 3.16 µM, first compound 10 µM): 4.86%
- viability, T/C [17]: 37.9%
- viability, T/C [18]: 35.3%
- viability, T/C [19]: 45.4%
- viability, T/C [20]: 35.9%
- viability, T/C (second compound 10 µM, first compound 3.16 µM): 20.8%
- viability, T/C (second compound 10 µM, first compound 10 µM): 17.5%

Structure (SMILES): CNC(C)C(=O)NC1CN(S(=O)(=O)c2cccc(S(=O)(=O)N3CCC4CCC(C(=O)NC(c5ccccc5)c5ccccc5)N4C(=O)C(NC(=O)C(C)NC)C3)c2)CCC2CCC(C(=O)NC(c3ccccc3)c3ccccc3)N2C1=O (stereo not given) + Cc1c(S(C)(=O)=O)c(-c2cc(F)cc(N3CCN(c4ccc(NS(=O)(=O)c5ccc(NC(CCN6CCC(C(=O)OCCCP(=O)(O)O)CC6)CSc6ccccc6)c(S(=O)(=O)C(F)(F)F)c5)cc4)CC3)c2)c(-c2ccc(Cl)cc2)n1C(C)C
- IC50 (second compound 0.1 µM): < 3.16 nM
- IC50 (second compound 0.316 µM): < 3.16 nM
- IC50 (second compound 1 µM): < 3.16 nM
- IC50 (second compound 3.16 µM): < 3.16 nM
- IC50 (second compound 10 µM): < 3.16 nM
- viability, T/C (second compound 0.1 µM, first compound 0.00316 µM): 27.1%
- viability, T/C (second compound 0.1 µM, first compound 0.01 µM): 20%
- viability, T/C [1]: 39.1%
- viability, T/C [2]: 20.2%
- viability, T/C [3]: 13.6%
- viability, T/C [4]: 12.2%
- viability, T/C (second compound 0.316 µM, first compound 0.00316 µM): 36.2%
- viability, T/C (second compound 0.316 µM, first compound 0.01 µM): 24.1%
- viability, T/C [5]: 15.8%
- viability, T/C [6]: 24.4%
- viability, T/C [7]: 14.7%
- viability, T/C [8]: 12.1%
- viability, T/C (second compound 1 µM, first compound 0.00316 µM): 29.8%
- viability, T/C (second compound 1 µM, first compound 0.01 µM): 23.5%
- viability, T/C [9]: 18.2%
- viability, T/C [10]: 22.5%
- viability, T/C [11]: 11.4%
- viability, T/C [12]: 10.7%
- viability, T/C (second compound 3.16 µM, first compound 0.00316 µM): 23.7%
- viability, T/C (second compound 3.16 µM, first compound 0.01 µM): 15.9%
- viability, T/C [13]: 16.7%
- viability, T/C [14]: 12%
- viability, T/C [15]: 9.91%
- viability, T/C [16]: 26.8%
- viability, T/C (second compound 10 µM, first compound 0.00316 µM): 26.3%
- viability, T/C (second compound 10 µM, first compound 0.01 µM): 14.5%
- viability, T/C [17]: 16.1%
- viability, T/C [18]: 14.2%
- viability, T/C [19]: 16.2%
- viability, T/C [20]: 7.68%

Structure (SMILES): Cc1nc(N2CCC3(CC2)COC(C)C3N)c(CO)nc1Sc1ccnc(N)c1Cl (stereo not given) + Cc1c(S(C)(=O)=O)c(-c2cc(F)cc(N3CCN(c4ccc(NS(=O)(=O)c5ccc(NC(CCN6CCC(C(=O)OCCCP(=O)(O)O)CC6)CSc6ccccc6)c(S(=O)(=O)C(F)(F)F)c5)cc4)CC3)c2)c(-c2ccc(Cl)cc2)n1C(C)C
- IC50 (second compound 0.1 µM): < 9.49 nM
- IC50 (second compound 0.316 µM): < 9.49 nM
- IC50 (second compound 1 µM): < 9.49 nM
- IC50 (second compound 3.16 µM): < 9.49 nM
- IC50 (second compound 10 µM): < 9.49 nM
- viability, T/C (second compound 0.1 µM, first compound 0.00949 µM): 49.6%
- viability, T/C (second compound 0.1 µM, first compound 0.03 µM): 46.2%
- viability, T/C (second compound 0.1 µM, first compound 0.0949 µM): 40.3%
- viability, T/C (second compound 0.1 µM, first compound 0.3 µM): 26.5%
- viability, T/C (second compound 0.1 µM, first compound 0.949 µM): 14.2%
- viability, T/C (second compound 0.1 µM, first compound 3 µM): 13.8%
- viability, T/C (second compound 0.316 µM, first compound 0.00949 µM): 42.4%
- viability, T/C (second compound 0.316 µM, first compound 0.03 µM): 43.5%
- viability, T/C (second compound 0.316 µM, first compound 0.0949 µM): 34.6%
- viability, T/C (second compound 0.316 µM, first compound 0.3 µM): 23%
- viability, T/C (second compound 0.316 µM, first compound 0.949 µM): 12.7%
- viability, T/C (second compound 0.316 µM, first compound 3 µM): 9.74%
- viability, T/C (second compound 1 µM, first compound 0.00949 µM): 33.5%
- viability, T/C (second compound 1 µM, first compound 0.03 µM): 33.9%
- viability, T/C (second compound 1 µM, first compound 0.0949 µM): 38.6%
- viability, T/C (second compound 1 µM, first compound 0.3 µM): 21.9%
- viability, T/C (second compound 1 µM, first compound 0.949 µM): 17.7%
- viability, T/C (second compound 1 µM, first compound 3 µM): 10.4%
- viability, T/C (second compound 3.16 µM, first compound 0.00949 µM): 26.5%
- viability, T/C (second compound 3.16 µM, first compound 0.03 µM): 47.5%
- viability, T/C (second compound 3.16 µM, first compound 0.0949 µM): 26.4%
- viability, T/C (second compound 3.16 µM, first compound 0.3 µM): 21.2%
- viability, T/C (second compound 3.16 µM, first compound 0.949 µM): 16.8%
- viability, T/C (second compound 3.16 µM, first compound 3 µM): 10.5%
- viability, T/C (second compound 10 µM, first compound 0.00949 µM): 33.3%
- viability, T/C (second compound 10 µM, first compound 0.03 µM): 36%
- viability, T/C (second compound 10 µM, first compound 0.0949 µM): 25.8%
- viability, T/C (second compound 10 µM, first compound 0.3 µM): 23.6%
- viability, T/C (second compound 10 µM, first compound 0.949 µM): 9.38%
- viability, T/C (second compound 10 µM, first compound 3 µM): 6.34%
